Test [1] relates to AGS. Kind of test: Induction of apoptosis in TRAIL-resistant human AGS cells assessed as early apoptotic cells at 40 uM after 24 hrs using annexin-V-FITC/propidium iodide staining by flow cytometry. The format is functional. A general note: In flow cytometry, cells or beads pass a laser one at a time.
Test [2] has as its system AGS. Kind of test: Induction of apoptosis in TRAIL-resistant human AGS cells assessed as early apoptotic cells at 60 uM after 24 hrs using annexin-V-FITC/propidium iodide staining by flow cytometry. The class given is functional.
Test [3] deals with AGS. Kind of test: Sensitization of TRAIL-induced apoptosis in TRAIL-resistant human AGS cells assessed as late apoptotic cells at 40 uM after 24 hrs using annexin-V-FITC/propidium iodide staining by flow cytometry. The format is functional.
Test [4] relates to AGS. Kind of test: Sensitization of TRAIL-induced apoptosis in TRAIL-resistant human AGS cells assessed as early apoptotic cells at 50 uM after 24 hrs using annexin-V-FITC/propidium iodide staining by flow cytometry. The format is functional.
In test [5] the test system is AGS. Kind of test: Sensitization of TRAIL-induced apoptosis in TRAIL-resistant human AGS cells assessed as accumulation at sub-G1 phase at 60 uM after 24 hrs using annexin-V-FITC/propidium iodide staining by flow cytometry in presence of DR5/Fc chimeric protein. The format is functional, cell-based.
Test [6] has as its system AGS. Kind of test: Sensitization of TRAIL-induced apoptosis in TRAIL-resistant human AGS cells assessed as early apoptotic cells at 40 uM after 24 hrs using annexin-V-FITC/propidium iodide staining by flow cytometry. The format is functional.
For test [7], the system named is AGS. Kind of test: Induction of DR5 protein expression in TRAIL-resistant human AGS cells after 24 hrs by Western blot analysis. The class given is functional, cell-based. On the technique in general: In western blotting, separated proteins are transferred to a membrane and probed.
The test system of test [8] is AGS. Kind of test: Induction of DR5 mRNA expression in TRAIL-resistant human AGS cells by RT-PCR. The format is functional, cell-based.
Test [9] deals with AGS. Kind of test: Induction of apoptosis in TRAIL-resistant human AGS cells assessed as late apoptotic cells at 40 uM after 24 hrs using annexin-V-FITC/propidium iodide staining by flow cytometry. The class given is functional.
Test [10] concerns AGS. Kind of test: Induction of TRAIL-induced apoptosis in TRAIL-resistant human AGS cells assessed as increase in caspase 3/7 activity after 24 hrs by luminescence assay. The class given is functional, cell-based.
In test [11] the test system is AGS. Kind of test: Sensitization of TRAIL-induced apoptosis in TRAIL-resistant human AGS cells assessed as increase in DR5 expression. The class given is functional, cell-based.
The subject of test [12] is AGS. Kind of test: Induction of apoptosis in TRAIL-resistant human AGS cells assessed as late apoptotic cells at 60 uM after 24 hrs using annexin-V-FITC/propidium iodide staining by flow cytometry. The class given is functional.
Test [13] relates to AGS. Kind of test: Sensitization of TRAIL-induced apoptosis in TRAIL-resistant human AGS cells assessed as late apoptotic cells at 60 uM after 24 hrs using annexin-V-FITC/propidium iodide staining assay. The format is functional.
The subject of test [14] is AGS. Kind of test: Induction of apoptosis in TRAIL-resistant human AGS cells assessed as late apoptotic cells at 50 uM after 24 hrs using annexin-V-FITC/propidium iodide staining by flow cytometry. The class given is functional.
The subject of test [15] is AGS. Kind of test: Sensitization of TRAIL-induced apoptosis in TRAIL-resistant human AGS cells assessed as early apoptotic cells at 60 uM after 24 hrs using annexin-V-FITC/propidium iodide staining by flow cytometry. The format is functional.
The subject of test [16] is AGS. Kind of test: Induction of apoptosis in TRAIL-resistant human AGS cells assessed as early apoptotic cells at 50 uM after 24 hrs using annexin-V-FITC/propidium iodide staining by flow cytometry. The class given is functional.
Test [17] deals with AGS. Kind of test: Sensitization of TRAIL-induced apoptosis in TRAIL-resistant human AGS cells assessed as late apoptotic cells at 50 uM after 24 hrs using annexin-V-FITC/propidium iodide staining by flow cytometry. The class given is functional.
The test system of test [18] is AGS. Kind of test: Induction of TRAIL-induced apoptosis in TRAIL-resistant human AGS cells assessed as increase in caspase 8 activity after 12 hrs by luminescence assay. The format is functional, cell-based.
The subject of a further test is DLD-1. Kind of test: Induction of DR5 promoter activity in SacI gene expressing human DLD1 cells at 17.5 uM after 24 hrs by luminescence assay. The class given is functional.

This is an account of results in ChEMBL document CHEMBL1143342, “Death receptor 5 targeting activity-guided isolation of isoflavones from Millettia brandisiana and Ardisia colorata and evaluation of ability to induce TRAIL-mediated apoptosis” (2009).

The structures appear in SMILES notation. Activity calls are given as the source filed them. The rule behind the calls is not given here.

For the compound `COc1cc(-c2coc3c4c(cc(O)c3c2=O)OC(C)(C)C=C4)c(OC)cc1O`, the Activity was 9.6% in the test with AGS [1]; 17.4% with AGS [2]; 12.9% with AGS [3]; 16.3% in the test with AGS [4]; 12.1% in the test on AGS [6]; “Dose-dependent effect” in the test on AGS [7]. The Activity entry was “Dose-dependent effect” with AGS [8]; 5.6% in the test on AGS [9]; “Dose-dependent effect” in the test on AGS [10]; 6.9% in the test on AGS [12]; 44.1% in the test on AGS [13]; 3.9% with AGS [14]. Moreover, the Activity is 23.4% in the test on AGS [15], 15.2% in the test with AGS [16], 19.5% with AGS [17] and “Dose-dependent effect” with AGS [18]. In addition, in the test on AGS [5], the result was inactive. Further, in the test on AGS [11], the outcome was Active.
Consider `COc1ccc(-c2coc3cc(O)ccc3c2=O)c(O)c1` [XENOGNOSIN B], for which the Activity in the test with DLD-1 was 2.5.
